In patent US9546367B2, “siRNA compositions and methods for inhibiting gene expression in tumor initiating cells of breast cancer” (priority 2011, dated 2017):

What was measured:
[1] = test system: MDAMB231; assay: in vitro MSFE with packaged siRNA; assay type: cell-based, human; settings: Day 8, p<0.05
Description: FIG. 7A, FIG. 7B, and FIG. 7C show confirmation of BCSC target genes and comparison of changes in mammosphere formation efficiency. […] Data analyzed by one-way ANOVA and plotted as mean±SEM for n=6 replicates; *p<0.05;
The siRNA sequences of two candidate genes RPL39 and MLF2 were packaged in nanoliposomes and the effects on MSFE determined in vitro, as described above, using packaged siRNA instead of lentiviral shRNA.

[2] = test system: MDAMB231 tumor xenografts; assay: long-term in vivo siRNA treatment of MDAMB231 xenografts; parameters: species or system SCID-Beige mice; settings: p<0.05; for median survival: siRNA with chemotherapy (docetaxel) over chemotherapy alone
Experimental: FIG. 8A, FIG. 8B, and […] show long-term, in vivo treatment in siRNA MDAMB231 xenografts. Triple-negative breast cancer cell line, MDAMB231 was injected into the mammary fat pad of SCID beige mice (n=9). These tumors were randomized into six groups: vehicle+scrambled siRNA, vehicle+RPL39 siRNA, vehicle 4 MLF2 siRNA, docetaxel (20 mg/kg, i.p.)+scrambled siRNA, docetaxel (20 mg/kg, i.p.)+RPL39 siRNA, docetaxel (20 mg/kg, i.p.)+MLF2 siRNA. Tumor volume was measured twice weekly and reported as tumor volume fold-change over time.
Long-term in vivo treatment efficacy studies: three million cells MDAMB231 cancer cells, which grow primary as well as metastatic tumors, were injected in the mammary fat pad of SCID-Beige mice and allowed them to grow to 150-300 mm^3 tumors, and randomized them into 6 groups: (1) vehicle+scrambled siRNA. (2) vehicle+MLF2 siRNA. (3) vehicle+RPL39 siRNA, (4) docetaxel (20 mg/kg)+scrambled siRNA, (5) docetaxel (20 mg/kg)+MLF2 siRNA, and (6) docetaxel (20 mg/kg)+RPL39 siRNA. Each injection was loaded with 15 μg of siRNA per animal. These groups received three cycles of treatment every 14 days apart starting at Day 0, and cationic liposome packaged siRNA was administered through tail vein injection thrice weekly.
In the shRNA knockdown experiments, the mean and standard deviation of all measurements from every replicated experiment of each plate were estimated. The Z-score was calculated by subtracting […] and dividing the difference by standard deviation. […] Different treatment groups were compared by one-way ANOVA to determine statistical significance in the confirmatory shRNA, nanoliposome siRNA, and tumor volume fold-change experiments. This was followed by Tukey analysis for a pairwise comparison of the different treatment groups. In the tumor recurrence studies, events were defined as first appearance of tumor >50 mm^3 after completion of treatment. Time to recurrence was derived by the Kaplan-Meier method, with differences compared using the generalized Mann-Whitney-Wilcoxon rank-sum test.

[3] = test system: BCM2665 xenografts; assay: short-term in vivo siRNA (multistage particle) treatment, BCM2665 patient-derived xenograft; parameters: species or system SCID-Beige mice; settings: for tumor volume: BCM2665; for secondary MSFE: BCM2665 xenograft cells, tumors collected after two weeks; for Aldefluor levels: BCM2665 xenografts, reduction not statistically significant
Experimental: FIG. 10A, FIG. 10B, FIG. 10C, and FIG. 10D illustrate the short-term, in vivo treatment of siRNA in triple-negative, patient-derived human cancer in a murine model xenograft, BCM2665. BCM2665 cells were transplanted into cleared mammary fat pad of SCID beige mice (n=9). These tumors were randomized into the same six groups as stated in the preceding figure, and treated in a manner identical to the SUM159 xenografts. […] RPL39 and MLF2 siRNA respectively. […] Data were analyzed by one-way ANOVA, and are plotted as mean±SEM for n=9 replicates; *p<0.05;
The effect of MLF2 and RPL39 using siRNA packaged in multistage nanoparticles in two different triple negative models were studied. SUM159 and a patient-derived human cancer xenograft (BCM2665) from a primary human breast cancer transplanted in SCID-Beige mice, the test group had 54 mice per xenograft line, and 9 mice per treatment arm. When tumor sizes reached 150 to 300 mm^3, mice were divided into six groups: (1) vehicle-treated, (2) chemotherapy on day 0 with one dose of docetaxel 20 mg/kg by intraperitoneal (i.p.) injection. (3) siRNA against MLF2 packaged in nanoparticles (single injection intravenous (i.v.) on Day 1), (4) combination treatment with docetaxel (20 mg/kg i.p. on Day 1) and siRNA against MLF2 (single injection i.v. on Day 1), (5) siRNA against RPL39 packaged in nanoparticles (single injection i.v. on Day 1), and (6) combination treatment with docetaxel (20 mg/kg i.p. on Day 1) and siRNA against inhibitor […] (single injection iv. on Day 1). The same dose (15 μg siRNA) was used in all experiments. Animals were sacrificed on Day 14. The tumors were harvested and analyzed for downstream effects on BCSC self-renewal using FACS analysis, and MSFE.
The fraction of BCSCs in the xenograft tumors from the six treatment groups were processed by mincing and digesting the tumors using collagenase type III, for 3 hrs at 37° C. in order to dissociate the tumors into single cells. Changes in CD44+/CD24/Lin− and Aldefluor® were analyzed as described previously (Li et al., 2008). Briefly, cells were stained with primary antibodies antiCD44 labeled APC (dilution 1:10. BD Biosciences), anti-CD24-labeled FITC (dilution 1:10, BD Biosciences), and additionally with H2KD-labeled PE to eliminate all mouse, lineage-positive cells. The cells were incubated in HBSS (Hanks Balanced Salt Solution, GIBCO) for 15 min on ice with 2% FBS for the antibodies and 45 min for Aldefluor® reagent. Following incubation, cells were washed once with HBSS and re-suspended in HBSS supplemented with 2% FBS. […] (PI) was added to the cells for live/dead gating prior to FACS analysis.
Mammosphere formation efficiency, the in vitro assay for stem cell self-renewal, was performed as described previously (Dontu et al., 2003; Dontu et al., 2005; Li et al., 2008). Single cells were plated in ultra-low attachment plates (Corning, Acton, Mass., USA) at the density 40,000 viable cells/mL for BCM2665 in primary culture, and at the density 10,000 viable cells/mL in secondary culture. For mammosphere culture, cells were grown in serum-free mammary epithelial basal medium (MEGM) (Lonza, Inc.) supplemented with B27 (Invitrogen), 20 ng/mL EGF (BD Biosciences), and 1% heparin (Sigma Chemical Co.) in a humidified incubator ([…]: 95% air, 37° C. for 14 days, as previously described (Li et al., 2008).

[4] = siRNA alone (15 μg per injection) vs vehicle treated groups
[5] = siRNA in combination with docetaxel (20 mg/kg)
[6] = siRNA alone (15 μg i.v., MSV) vs vehicle
[7] = siRNA+chemotherapy vs standard-dose docetaxel (20 mg/kg)

Row | Substance | secondary MSFE [1] | tumor volume [2, 4] | tumor volume [2, 5] | median survival [2] | tumor volume [3, 6] | tumor volume [3, 7] | secondary MSFE [3] | Aldefluor levels [3]
1 | MLF2 siRNA: siRNA against myeloid leukemia factor 2; sense SEQ ID NO: 3 CCCTGATGGATCCCTTTGCTAT, antisense SEQ ID NO: 19 ATAGCAAAGGGATCCATCAGGA (packaged in nanoliposomes, chemistry not given here, further chemistry not given here) | significantly reduced | Significant reduction | significantly reduced | significantly prolonged | Significant reduction | Similarly, observations were obtained | Significant decrease | reduction
2 | RPL39 siRNA: siRNA against ribosomal protein L39-like; sense SEQ ID NO: 15 ACGATTCCTGGCCAAGAAACAA, antisense SEQ ID NO: 31 TTGTTTCTTGGCCAGGAATCGC (listed as DNA, chemistry not fully specified) | significantly reduced | Significant reduction | significantly reduced | significantly prolonged | Significant reduction | Similarly, observations were obtained | Significant decrease | reduction
